Measurements: patent US8507464B2, “Phosphoramidate alkylator prodrugs” (Threshold Pharmaceuticals, Inc., priority 2005, dated 2013)

What was measured:
NCI-H460 cells [1] = test: Antiproliferation assay (Alamar Blue), anoxia vs air
NCI-H460 cells [2] = test: Antiproliferation assay - oxygen dependence; assay type: cell-based, human
Excerpt: . […] The calculated IC50 values (μM) are tabulated in Table Y1 (H460 cells) or Table Y2 (HT29 cells) below.

[3] = Homo sapiens, NCI-H460, 2 h, read-out: IC50 H460 Air, air, 2 h exposure
[4] = Homo sapiens, NCI-H460, 2 h, read-out: IC50 H460 Anoxia, anoxia, 2 h exposure
[5] = Homo sapiens, NCI-H460, read-out: IC50 in H460 cells, 0.6% O2
[6] = Homo sapiens, NCI-H460; read-out: IC50 in H460 cells, Air
[7] = Homo sapiens, NCI-H460, read-out: IC50 in H460 cells, Air
[8] = Homo sapiens, NCI-H460, read-out: IC50 in H460 cells, N2
[9] = read-out: IC50 H460 Air, air, 2 h exposure
[10] = read-out: IC50 H460 Anoxia, anoxia, 2 h exposure

| Compound | IC50 (NCI-H460 cells [1]; [3]) | IC50 (NCI-H460 cells [1]; [4]) | further results |
| --- | --- | --- | --- |
| CC(C)[C@H](CCl)NP(=O)(N[C@@H](CCl)C(C)C)OCc1ccc(OCc2cnc([N+](=O)[O-])n2C)c(F)c1 [Compound 49] | – | – | IC50 (NCI-H460 cells [1]; read-out: IC50 H460 Air): > 100 µM |
| Cn1c(COP(=O)(NCCOS(C)(=O)=O)NCCOS(C)(=O)=O)cnc1[N+](=O)[O-] [Compound 67] | > 100 µM | 48 µM | – |
| COc1cc(C(C)OP(=O)(NCCBr)NCCBr)ccc1OCc1cnc([N+](=O)[O-])n1C (stereo not drawn) [Compound 60] | 15 µM | 15 µM | – |
| CC(C)[C@@H](CCl)NP(=O)(N[C@H](CCl)C(C)C)OCc1ccc([N+](=O)[O-])s1 [Compound 47] | > 100 µM | 4 µM | IC50 (NCI-H460 cells [2]; [5]): 60 µM; IC50 (NCI-H460 cells [2]; [6]): 100 µM |
| Cc1cc(C(C)OP(N)(=O)N(CCCl)CCCl)sc1[N+](=O)[O-] (stereo not drawn) [Compound 116] | 15 µM | 0.5 µM | – |
| COc1cc2c(=O)n(CCN(C)P(=O)(OCc3ccc([N+](=O)[O-])o3)N(CCCl)CCCl)c3c4cc5c(cc4ncc3c2cc1OC)OCO5 (stereo not drawn) [Compound 154] | 2 µM | 0.9 µM | – |
| CCN(CCOP(=O)(NCCBr)NCCBr)C(=O)OCc1cnc([N+](=O)[O-])n1C [Compound 62] | 45 µM | 2 µM | IC50 (NCI-H460 cells [2]; [5]): 30 µM; IC50 (NCI-H460 cells [2]; [7]): 45 µM; IC50 (NCI-H460 cells [2]; [8]): 2 µM |
| CC(OP(=O)(NCCCl)NCCCl)c1ccc([N+](=O)[O-])s1 (stereo not drawn) [Compound 89] | 3.7 µM | 0.33 µM | – |
| C[C@H](CCl)NP(=O)(N[C@H](C)CCl)OCc1ccc(-c2ccc([N+](=O)[O-])s2)cc1 [Compound 52] | 20 µM | 15 µM | IC50 (NCI-H460 cells [2]; [5]): 10 µM; IC50 (NCI-H460 cells [2]; [6]): 20 µM |
| C[C@@H](CCl)NP(=O)(N[C@@H](C)CCl)OCc1ccc([N+](=O)[O-])o1 [Compound 42] | 9 µM | 0.5 µM | – |
| N#Cc1cc(COP(=O)(NCCCl)NCCCl)sc1[N+](=O)[O-] [Compound 96] | – | – | IC50 (NCI-H460 cells [1]; [9]): 0.1 µM; IC50 (NCI-H460 cells [1]; [10]): 0.1 µM |
| CC(OP(=O)(NCCCl)NCCCl)c1ncc([N+](=O)[O-])n1C (stereo not drawn) [Compound 87] | > 100 µM | 22 µM | – |
| Cn1c([N+](=O)[O-])cnc1COc1ccc(COP(N)(=O)N(CCCl)CCCl)cc1 (stereo not drawn) [Compound 142] | > 100 µM | > 40 µM | – |
| Cn1c([N+](=O)[O-])cnc1/C=C/COP1(=O)N(CCCl)CCN1CCCl [Compound 147] | > 100 µM | > 100 µM | – |
| O=[N+]([O-])c1ccc(C#Cc2ccc(COP(=O)(NCCBr)NCCBr)cc2)s1 [Compound 58] | 10 µM | 5 µM | – |
| O=[N+]([O-])c1nccn1CCCOP(=O)(NCCBr)NCCBr [Compound 80] | > 100 µM | > 100 µM | – |
| C[C@@H](CCl)NP(=O)(N[C@@H](C)CCl)OCc1ccc([N+](=O)[O-])s1 [Compound 41] | – | – | IC50 (NCI-H460 cells [1]; read-out: IC50 H460 Air): 7 µM |
| Cn1c(COC(=O)NCCCCOP(=O)(NCCBr)NCCBr)cnc1[N+](=O)[O-] [Compound 69] | > 100 µM | 71 µM | – |
| O=[N+]([O-])c1ccsc1COP(=O)(NCCBr)NCCBr [Compound 86] | – | – | IC50 (NCI-H460 cells [1]; [9]): 3 µM; IC50 (NCI-H460 cells [1]; [10]): 1.4 µM |
| O=[N+]([O-])c1cnc(-c2ccc(COP(=O)(NCCBr)NCCBr)cc2)s1 [Compound 63] | 8 µM | 1 µM | IC50 (NCI-H460 cells [2]; [5]): 15 µM; IC50 (NCI-H460 cells [2]; [7]): 8 µM; IC50 (NCI-H460 cells [2]; [8]): 1 µM |
| O=[N+]([O-])c1ncc(COP(=O)(NCCCl)NCCCl)n1C1CCCCC1 [Compound 76] | > 100 µM | 9 µM | – |
| Cn1c(COc2ccc(COP3(=O)N(CCCl)CCCN3CCCl)cc2F)cnc1[N+](=O)[O-] [Compound 33] | 46 µM | 8 µM | – |
| O=[N+]([O-])c1ccc(COP(=O)(NCCCCCCCCNP(=O)(OCc2ccc([N+](=O)[O-])o2)N(CCCl)CCCl)N(CCCl)CCCl)o1 (stereo not drawn) [Compound 139] | 100 µM | 16 µM | – |
| C[C@H](CCl)NP(=O)(N[C@H](C)CCl)OCc1ccc(OCc2cnc([N+](=O)[O-])n2C)c(F)c1 [Compound 51] | 7 µM | 3 µM | IC50 (NCI-H460 cells [2]; [5]): 7 µM; IC50 (NCI-H460 cells [2]; [6]): 7 µM |
| CC(=O)NP(=O)(OCc1cnc([N+](=O)[O-])n1C)N(CCCl)CCCl (stereo not drawn) [Compound 149] | > 100 µM | 50 µM | – |
